Test results published in PubChem BioAssay (NCI).
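Cultured in 96-well plates, cells were exposed to test compound for 48 hours across five concentrations. TGI: total growth inhibition.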

Key:
Test in all cases: NCI anticancer screen, dose series, 48 h
[1] = test system: NCI-H522 lung
[2] = test system: EKVX NSCLC
[3] = test system: OVCAR-5 ovarian
[4] = test system: SW-620 colon
[5] = test system: 786-0 renal
[6] = test system: HS 578T breast
[7] = test system: A498 renal
[8] = test system: HOP-92 NSCLC
[9] = test system: TK-10 renal
[10] = test system: HL-60(TB) leukemia
[11] = test system: SK-MEL-2 melanoma
[12] = test system: HOP-62 NSCLC
[13] = test system: MOLT-4 leukemia
[14] = test system: SF-295 CNS
[15] = test system: IGROV1 ovarian
[16] = test system: CAKI-1 renal
[17] = test system: SNB-19 CNS
[18] = test system: UACC-62 melanoma
[19] = test system: OVCAR-4 ovarian
[20] = test system: PC-3 prostate
[21] = test system: U251 CNS
[22] = test system: MDA-N
[23] = test system: HCT-15 colon
[24] = test system: K-562 leukemia
[25] = test system: SF-539 CNS
[26] = test system: NCI-H23 lung
[27] = test system: SK-MEL-28 melanoma
[28] = test system: MDA-MB-231 breast
[29] = test system: SF-268 CNS
[30] = test system: A549 NSCLC
[31] = test system: RPMI-8226 leukemia
[32] = test system: NCI-H460 lung
[33] = test system: KM12 colon
[34] = test system: HCT-116 colon
[35] = test system: UACC-257 melanoma
[36] = test system: DU-145 prostate
[37] = test system: M14 melanoma
[38] = test system: T-47D breast
[39] = test system: RXF 393 renal
[40] = test system: SK-OV-3 ovarian
[41] = test system: ACHN renal
[42] = test system: SNB-75 CNS
[43] = test system: OVCAR-3 ovarian
[44] = test system: MDA-MB-435
[45] = test system: HCC-2998 colon
[46] = test system: BT-549 breast
[47] = test system: LOX IMVI melanoma
[48] = test system: SN12C renal
[49] = test system: UO-31 renal
[50] = test system: SR leukemia
[51] = test system: COLO 205 colon
[52] = test system: MCF7 breast
[53] = test system: SK-MEL-5 melanoma
[54] = test system: MALME-3M melanoma
[55] = test system: HT29 colon
[56] = test system: NCI-H226 lung
[57] = test system: NCI/ADR-RES ovarian
[58] = test system: CCRF-CEM leukemia
[59] = test system: OVCAR-8 ovarian

Brc1ccc(-c2[nH]c3ccccc3c2N=Nc2ccccc2)cc1
TGI [1]: 34.6 µM
TGI [2]: 32.9 µM
TGI [3]: 33.5 µM
TGI [4]: 35.3 µM
TGI [5]: 32.9 µM
TGI [6]: 44.1 µM
TGI [7]: 44.1 µM
TGI [8]: 36.2 µM
TGI [9]: 37.8 µM
TGI [10]: 63.4 µM
TGI [11]: 36.7 µM
TGI [12]: 34.7 µM
TGI [13]: 38.6 µM
TGI [14]: 33.3 µM
TGI [15]: 26.2 µM
TGI [16]: 27.8 µM
TGI [17]: 38.1 µM
TGI [18]: 36.7 µM
TGI [19]: 30.4 µM
TGI [20]: 32.6 µM
TGI [21]: 33.9 µM
TGI [22]: 30.5 µM
TGI [23]: 30 µM
TGI [24]: > 100 µM
TGI [25]: 32 µM
TGI [26]: 34.1 µM
TGI [27]: 37.8 µM
TGI [28]: 35.8 µM
TGI [29]: 36 µM
TGI [30]: 30.5 µM
TGI [31]: 58 µM
TGI [32]: 31.8 µM
TGI [33]: 36.1 µM
TGI [34]: 34.8 µM
TGI [35]: 35.1 µM
TGI [36]: 32.2 µM
TGI [37]: 33.5 µM
TGI [38]: 32.5 µM
TGI [39]: 30.8 µM
TGI [40]: 33 µM
TGI [41]: 37.2 µM
TGI [42]: 33.9 µM
TGI [43]: 26.8 µM
TGI [44]: 34.5 µM
TGI [45]: 30.7 µM
TGI [46]: 41.5 µM
TGI [47]: 65.2 µM
TGI [48]: 31.6 µM
TGI [49]: 29.9 µM
TGI [50]: 51.8 µM
TGI [51]: 28.5 µM
TGI [52]: 31.7 µM
TGI [53]: 32.7 µM
TGI [54]: 36.1 µM

COc1ccc2oc(=N)c(C(N)=O)cc2c1
TGI [3]: > 100 µM
TGI [4]: > 100 µM
TGI [5]: > 100 µM
TGI [6]: 61.7 µM
TGI [7]: > 100 µM
TGI [8]: > 100 µM
TGI [10]: > 100 µM
TGI [11]: 63 µM
TGI [12]: > 100 µM
TGI [13]: > 100 µM
TGI [15]: > 100 µM
TGI [55]: > 100 µM
TGI [16]: > 100 µM
TGI [17]: > 100 µM
TGI [18]: > 100 µM
TGI [19]: > 100 µM
TGI [56]: > 100 µM
TGI [20]: > 100 µM
TGI [21]: > 100 µM
TGI [22]: > 100 µM
TGI [23]: > 100 µM
TGI [24]: > 100 µM
TGI [25]: > 100 µM
TGI [26]: > 100 µM
TGI [27]: > 100 µM
TGI [57]: > 100 µM
TGI [28]: > 100 µM
TGI [29]: > 100 µM
TGI [30]: > 100 µM
TGI [31]: > 100 µM
TGI [32]: > 100 µM
TGI [33]: > 100 µM
TGI [34]: > 100 µM
TGI [35]: > 100 µM
TGI [36]: > 100 µM
TGI [37]: > 100 µM
TGI [38]: > 100 µM
TGI [39]: > 100 µM
TGI [40]: > 100 µM
TGI [41]: > 100 µM
TGI [42]: > 100 µM
TGI [58]: > 100 µM
TGI [43]: > 100 µM
TGI [44]: > 100 µM
TGI [45]: > 100 µM
TGI [46]: > 100 µM
TGI [47]: > 100 µM
TGI [48]: > 100 µM
TGI [59]: > 100 µM
TGI [50]: > 100 µM
TGI [51]: > 100 µM
TGI [53]: > 100 µM

c1cc2ccc3cc4ncccc4c4ccc(c1)c2c34
TGI [1]: > 100 µM
TGI [2]: > 100 µM
TGI [3]: > 100 µM
TGI [4]: > 100 µM
TGI [5]: > 100 µM
TGI [6]: > 100 µM
TGI [8]: > 100 µM
TGI [9]: > 100 µM
TGI [10]: > 100 µM
TGI [11]: 77 µM
TGI [12]: > 100 µM
TGI [13]: > 100 µM
TGI [14]: > 100 µM
TGI [15]: 25 µM
TGI [55]: > 100 µM
TGI [16]: > 100 µM
TGI [17]: > 100 µM
TGI [18]: > 100 µM
TGI [56]: > 100 µM
TGI [20]: > 100 µM
TGI [21]: > 100 µM
TGI [22]: > 100 µM
TGI [23]: > 100 µM
TGI [24]: > 100 µM
TGI [25]: > 100 µM
TGI [26]: > 100 µM
TGI [27]: > 100 µM
TGI [57]: > 100 µM
TGI [28]: > 100 µM
TGI [29]: > 100 µM
TGI [30]: > 100 µM
TGI [31]: 88.3 µM
TGI [32]: > 100 µM
TGI [33]: > 100 µM
TGI [34]: > 100 µM
TGI [35]: > 100 µM
TGI [36]: > 100 µM
TGI [37]: > 100 µM
TGI [38]: > 100 µM
TGI [39]: > 100 µM
TGI [40]: > 100 µM
TGI [41]: 31.6 µM
TGI [42]: > 100 µM
TGI [58]: > 100 µM
TGI [43]: > 100 µM
TGI [44]: > 100 µM
TGI [45]: > 100 µM
TGI [47]: > 100 µM
TGI [48]: > 100 µM
TGI [59]: 67.4 µM
TGI [49]: 40.2 µM
TGI [50]: > 100 µM
TGI [51]: > 100 µM
TGI [52]: > 100 µM
TGI [54]: > 100 µM

CC(C)(C)OC(=O)N1CC(O)O[C@H](c2ccccc2)[C@@H]1c1ccccc1 (some centres not stated)
TGI [1]: 45.6 µM
TGI [2]: 40.9 µM
TGI [3]: 32.3 µM
TGI [4]: 32.8 µM
TGI [5]: 62.1 µM
TGI [6]: > 100 µM
TGI [7]: 40.7 µM
TGI [8]: 36.1 µM
TGI [9]: 33.1 µM
TGI [11]: 28.4 µM
TGI [12]: 31.2 µM
TGI [13]: 97.5 µM
TGI [14]: 30.1 µM
TGI [15]: 40.4 µM
TGI [55]: 39.3 µM
TGI [16]: > 100 µM
TGI [17]: 29.1 µM
TGI [18]: 28.1 µM
TGI [19]: 36.2 µM
TGI [56]: 45.7 µM
TGI [20]: 27.8 µM
TGI [21]: 33.4 µM
TGI [22]: 59.5 µM
TGI [23]: 33.9 µM
TGI [24]: > 100 µM
TGI [26]: 29.5 µM
TGI [27]: 35.2 µM
TGI [57]: > 100 µM
TGI [28]: 67.6 µM
TGI [29]: 77.6 µM
TGI [30]: 39.5 µM
TGI [31]: > 100 µM
TGI [33]: 42 µM
TGI [34]: > 100 µM
TGI [35]: 35.3 µM
TGI [36]: 53.8 µM
TGI [37]: 30.2 µM
TGI [38]: > 100 µM
TGI [39]: 30 µM
TGI [40]: 36.6 µM
TGI [42]: 70.2 µM
TGI [58]: 48.4 µM
TGI [43]: 30.2 µM
TGI [44]: 32.2 µM
TGI [46]: 36.4 µM
TGI [47]: > 100 µM
TGI [48]: > 100 µM
TGI [59]: > 100 µM
TGI [49]: 31.4 µM
TGI [50]: 62.8 µM
TGI [51]: 97.4 µM
TGI [53]: > 100 µM
TGI [54]: 43.2 µM

Cc1ccc(NC(=O)/C=C/c2ccccc2)c(C)c1
TGI [1]: > 100 µM
TGI [2]: > 100 µM
TGI [3]: > 100 µM
TGI [4]: > 100 µM
TGI [5]: > 100 µM
TGI [6]: 74.4 µM
TGI [7]: > 100 µM
TGI [9]: > 100 µM
TGI [10]: > 100 µM
TGI [11]: > 100 µM
TGI [12]: > 100 µM
TGI [13]: > 100 µM
TGI [55]: > 100 µM
TGI [16]: > 100 µM
TGI [17]: > 100 µM
TGI [18]: > 100 µM
TGI [19]: > 100 µM
TGI [56]: 92 µM
TGI [20]: > 100 µM
TGI [21]: > 100 µM
TGI [22]: > 100 µM
TGI [23]: > 100 µM
TGI [24]: > 100 µM
TGI [25]: > 100 µM
TGI [26]: > 100 µM
TGI [27]: > 100 µM
TGI [28]: > 100 µM
TGI [29]: > 100 µM
TGI [30]: > 100 µM
TGI [31]: > 100 µM
TGI [32]: > 100 µM
TGI [33]: > 100 µM
TGI [34]: > 100 µM
TGI [35]: > 100 µM
TGI [36]: > 100 µM
TGI [37]: > 100 µM
TGI [38]: > 100 µM
TGI [40]: > 100 µM
TGI [41]: > 100 µM
TGI [42]: > 100 µM
TGI [58]: > 100 µM
TGI [43]: > 100 µM
TGI [44]: > 100 µM
TGI [45]: > 100 µM
TGI [46]: > 100 µM
TGI [47]: > 100 µM
TGI [48]: > 100 µM
TGI [59]: > 100 µM
TGI [50]: > 100 µM
TGI [51]: > 100 µM
TGI [52]: > 100 µM
TGI [53]: > 100 µM
TGI [54]: > 100 µM
